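Cells were grown in 96-well plates and exposed to each compound for 48 hours at five concentrations; endpoints were interpolated linearly between bracketing concentrations, or set to the highest concentration if not reached. The concentration for 50% growth inhibition is given as GI50.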 Active and inactive are the calls of the source. Rule as the data show it: active = GI50 up to about 1.1 µM and inactive = higher.

Data on eleven molecules can be found in ChEMBL document CHEMBL1201862, “PubChem BioAssay data set” (2004).

Some test systems named below: 786-0; A549; CAKI-1; DU-145; EKVX; HOP-92; HT-29; M14; MDA-MB-435; NCI-H226; OVCAR-3; SK-MEL-28; SK-MEL-5; SNB-19; SW-620; UO-31; HL-60; K562; OVCAR-5; A498.
Experiment in all cases: inhibition of tumour cell growth, NCI panel, 48 h

For the molecule `O=[N+]([O-])c1ccc(-c2nc3cc([N+](=O)[O-])ccc3[nH]2)cc1`, the GI50 was 32.1 µM (inactive) with 786-0; 15.1 µM (inactive) in the test on A549; 32.7 µM (inactive) with CAKI-1; 27.9 µM (inactive) with DU-145; 39.3 µM (inactive) in the test on EKVX; 19.6 µM (inactive) with HOP-92. Also, the GI50 is 28.4 µM (inactive) with HT-29; 21.9 µM (inactive) in the test on M14; 29.4 µM (inactive) with MDA-MB-435; 39.6 µM (inactive) with NCI-H226; 42.1 µM (inactive) with OVCAR-3; 40.6 µM (inactive) in the test with SK-MEL-28. For the same molecule, the GI50 is 16.8 µM (inactive) with SK-MEL-5, 43.1 µM (inactive) with SNB-19, 41.3 µM (inactive) with SW-620 and 7.66 µM (inactive) in the test on UO-31.

Regarding `COC(=O)[C@@H]1O[C@]12[C@@H](CO[Si](C)(C)C(C)(C)C)O[C@@H](n1cc(C)c(=O)[nH]c1=O)[C@@H]2O[Si](C)(C)C(C)(C)C`, the GI50 is 25.5 µM (inactive) in the test on A549; 23.4 µM (inactive) in the test on CAKI-1; 18.2 µM (inactive) with DU-145; 23.5 µM (inactive) in the test on EKVX; 3.12 µM (inactive) in the test with HL-60; 6.11 µM (inactive) in the test with HT-29. The GI50 in the test on K562 was 7.96 µM (inactive); in the test on M14, 19.5 µM (inactive); in the test on MDA-MB-435, 19.5 µM (inactive); in the test on NCI-H226, 21 µM (inactive); in the test on OVCAR-3, 14.6 µM (inactive); in the test on OVCAR-5 it was 20.4 µM (inactive). Also, the GI50 is 19.8 µM (inactive) in the test on SK-MEL-28, 19.7 µM (inactive) in the test on SK-MEL-5, 10.3 µM (inactive) in the test on SNB-19 and 11.5 µM (inactive) in the test on SW-620.

Regarding `Cc1cc(C)c(S(=O)(=O)N(CCCCN)OCCCN)c(C)c1`, the GI50 in the test on A549 is 19.3 µM (inactive); in the test with CAKI-1, 17.4 µM (inactive); in the test on DU-145 it was 15.6 µM (inactive); with EKVX, 16.4 µM (inactive); in the test with HOP-92, 19 µM (inactive); in the test with HT-29 it was 14.3 µM (inactive). The GI50 with K562 was 13.9 µM (inactive); in the test with M14 it was 18.7 µM (inactive); in the test with MDA-MB-435, 16.6 µM (inactive); with NCI-H226, 16.5 µM (inactive); in the test on OVCAR-3 it was 18.4 µM (inactive); in the test on OVCAR-5, 19.5 µM (inactive). For the same molecule, the GI50 was 18.3 µM (inactive) in the test with SK-MEL-28; 23.7 µM (inactive) in the test on SK-MEL-5; 19.6 µM (inactive) in the test with SNB-19; 17.9 µM (inactive) with SW-620; 17.5 µM (inactive) in the test on UO-31.

Consider `COc1ccc(N[C@H]([C@@H](c2ccccc2)[S+]([O-])c2ccc(C)cc2)C(F)(F)F)cc1` (stereo partly drawn), for which the GI50 with 786-0 was 39 µM (inactive); in the test with A549 it was 32.7 µM (inactive); in the test with CAKI-1 it was 46.7 µM (inactive); in the test on DU-145, 62.8 µM (inactive); in the test on EKVX, 44 µM (inactive); in the test on HL-60, 19.1 µM (inactive). The GI50 in the test on HOP-92 was 34 µM (inactive); with HT-29 it was 31.8 µM (inactive); in the test on K562 it was 28.4 µM (inactive); in the test with M14 it was 45.6 µM (inactive); in the test on MDA-MB-435 it was 41.1 µM (inactive); with NCI-H226 it was 48.4 µM (inactive). In addition, the GI50 is > 100 µM (inactive) with OVCAR-3; 40.6 µM (inactive) with OVCAR-5; > 100 µM (inactive) in the test on SK-MEL-28; 35.8 µM (inactive) in the test with SK-MEL-5; 33.1 µM (inactive) in the test on SNB-19; 61.1 µM (inactive) with SW-620. Besides, the GI50 with UO-31 was 59.8 µM (inactive).

As for `O=c1cc(-c2ccncc2)[nH]c2cc3c(cc12)OCO3`, the GI50 in the test with 786-0 was 64.6 µM (inactive); in the test with A498, > 100 µM (inactive); with A549, > 100 µM (inactive); in the test with DU-145 it was > 100 µM (inactive); with EKVX, > 100 µM (inactive); in the test on HOP-92, > 100 µM (inactive). For the same molecule, the GI50 in the test on HT-29, in the test on M14, in the test on MDA-MB-435, with NCI-H226, in the test on OVCAR-3 and in the test on OVCAR-5 was > 100 µM (inactive) throughout. The GI50 in the test with SK-MEL-28, in the test on SK-MEL-5, in the test on SNB-19, in the test with SW-620 and in the test with UO-31 was > 100 µM (inactive) in each case.

Turning to `C=C(C)C(=O)[C@@]12C(=O)[C@@H](C)CC[C@H]1[C@H](C)C[C@@H]2C=C(C)C`, the GI50 in the test with 786-0 is 20.1 µM (inactive); in the test with A498 it was 52.4 µM (inactive); in the test on A549 it was 32.7 µM (inactive); in the test with CAKI-1, 29.4 µM (inactive); in the test with DU-145, 38.4 µM (inactive); in the test with EKVX, 30.5 µM (inactive). Besides, the GI50 was 25.8 µM (inactive) with HOP-92; 14.6 µM (inactive) with HT-29; 29.6 µM (inactive) with K562; 55.6 µM (inactive) in the test on M14; 20.3 µM (inactive) with MDA-MB-435; < 0.01 µM (active) in the test with NCI-H226. The GI50 in the test on OVCAR-3 is 19.5 µM (inactive); in the test on OVCAR-5 it was 28.4 µM (inactive); with SK-MEL-28 it was 34 µM (inactive); with SK-MEL-5, 19.4 µM (inactive); with SNB-19, 12.6 µM (inactive); with SW-620 it was 20.2 µM (inactive). The GI50 in the test with UO-31 is 20.2 µM (inactive).

In the case of `COc1ccc2c3c1OC1C(F)C=CC4(O)C(C2)NCCC314` (stereo not drawn), the GI50 in the test with 786-0 was 1.2 µM (inactive); with A498, 4.47 µM (inactive); in the test on A549, 7.23 µM (inactive); with CAKI-1, 0.962 µM (active); in the test with DU-145, 2.82 µM (inactive); with EKVX it was 2.49 µM (inactive). In addition, the GI50 is 2.87 µM (inactive) with HOP-92; 2.54 µM (inactive) with HT-29; 0.805 µM (active) in the test on K562; 1.65 µM (inactive) in the test with M14; 1.52 µM (inactive) in the test with MDA-MB-435; 11.2 µM (inactive) with NCI-H226. In addition, the GI50 was 1.87 µM (inactive) in the test on OVCAR-3; 3.2 µM (inactive) with OVCAR-5; 3.07 µM (inactive) in the test with SK-MEL-28; 3.94 µM (inactive) with SK-MEL-5; 1.81 µM (inactive) with SNB-19; 1.37 µM (inactive) with SW-620. Also, in the test on UO-31, the GI50 is 1.55 µM (inactive).

`C/C(=N\Nc1nc2ccccc2[nH]1)c1cccc[n+]1[O-]`: the GI50 with 786-0 was > 100 µM (inactive); in the test on A498, > 100 µM (inactive); in the test on A549, > 100 µM (inactive); in the test on CAKI-1, 34.5 µM (inactive); in the test with DU-145, > 100 µM (inactive); in the test on EKVX it was 3.03 µM (inactive). Moreover, the GI50 with HOP-92 is 33.9 µM (inactive); in the test on HT-29 it was 32.1 µM (inactive); in the test on K562 it was > 100 µM (inactive); with M14, > 100 µM (inactive); with MDA-MB-435, > 100 µM (inactive); with NCI-H226, 45.4 µM (inactive). In addition, the GI50 in the test with OVCAR-3 is 37.6 µM (inactive); in the test with OVCAR-5, 8.91 µM (inactive); in the test with SK-MEL-28 it was > 100 µM (inactive); with SK-MEL-5 it was > 100 µM (inactive); with SNB-19, > 100 µM (inactive); in the test on SW-620, > 100 µM (inactive). Also, the GI50 in the test with UO-31 was 64.6 µM (inactive).

As to `c1ccc(C(NC2=NCCO2)C2CC2)cc1` (stereo not drawn), the GI50 with 786-0 is > 100 µM (inactive); in the test on A498 it was 93.1 µM (inactive); with A549, > 100 µM (inactive); in the test with DU-145, > 100 µM (inactive); in the test on EKVX, > 100 µM (inactive); in the test on HOP-92 it was > 100 µM (inactive). The GI50 with HT-29 is 58.1 µM (inactive); with M14, > 100 µM (inactive); in the test with MDA-MB-435, 75.9 µM (inactive); with NCI-H226, > 100 µM (inactive); in the test with OVCAR-3, > 100 µM (inactive); with OVCAR-5, > 100 µM (inactive). Besides, the GI50 was > 100 µM (inactive) in the test with SK-MEL-28; > 100 µM (inactive) with SK-MEL-5; 88.9 µM (inactive) in the test with SNB-19; > 100 µM (inactive) in the test with SW-620; > 100 µM (inactive) in the test with UO-31.

As to `Oc1ccc(-c2nc3cc(C(F)(F)F)ccc3s2)cc1`, the GI50 was 18.2 µM (inactive) in the test with A498; 15.4 µM (inactive) in the test with A549; 15.7 µM (inactive) in the test with CAKI-1; 16.4 µM (inactive) in the test on DU-145; 1.77 µM (inactive) in the test with EKVX; 18.1 µM (inactive) with HL-60. The GI50 was 18.9 µM (inactive) in the test with HT-29; 23.9 µM (inactive) in the test on K562; 15.5 µM (inactive) with M14; 15.7 µM (inactive) with MDA-MB-435; 17.3 µM (inactive) in the test with NCI-H226; 15 µM (inactive) in the test on OVCAR-3. The GI50 with OVCAR-5 is 17.2 µM (inactive); in the test on SK-MEL-5 it was 14.9 µM (inactive); in the test on SNB-19, 16.7 µM (inactive); in the test on SW-620, 20.2 µM (inactive); in the test with UO-31, 13.6 µM (inactive).

As for `O=c1c(-c2ccc(O)cc2)coc2cc(O)cc(O)c12` [GENISTEIN], the GI50 in the test on 786-0 was 43.2 µM (inactive); in the test on A549, 62.4 µM (inactive); in the test on DU-145, 92.5 µM (inactive); in the test on EKVX, 63.1 µM (inactive); in the test on HL-60, 69.8 µM (inactive); in the test on HOP-92 it was > 100 µM (inactive). Also, the GI50 with HT-29 is > 100 µM (inactive); in the test with K562, > 100 µM (inactive); with M14, > 100 µM (inactive); in the test on MDA-MB-435 it was > 100 µM (inactive); in the test on NCI-H226 it was 74.1 µM (inactive); with OVCAR-5, > 100 µM (inactive). Further, the GI50 with SK-MEL-28 is > 100 µM (inactive); in the test on SK-MEL-5, > 100 µM (inactive); with SNB-19, 92 µM (inactive); with SW-620, 49.2 µM (inactive); with UO-31, 24.9 µM (inactive).
